Results: US20230414607A1, “METHODS OF TREATMENT” (BOW RIVER LLC, priority 2017, published 2023)
Like-named read-outs stand apart in the source and are kept apart here. Marks after values point to notes of the source that are not given here.

Experiments:
[1] = Plasma ranolazine pharmacokinetics before, during and after posaconazole in normal-weight and obese subjects; format: in vivo, human; details: for Time the interaction persisted above an AUC GMR of 1.5: after cessation of posaconazole administration; for Time the interaction persisted above a Cmax GMR of 1.5: after cessation of posaconazole
Method: Procedures. […] On study day 2, subjects received posaconazole (300 mg delayed-release tablet twice a day), and on the mornings of days 3-15, subjects received posaconazole (300 mg delayed-release tablet daily). Because posaconazole is to be taken with food,^6 subjects were fed a continental breakfast in the clinical research unit after receiving posaconazole and before discharge from the unit. […] Samples were centrifuged, and the plasma was separated and frozen at −70° C. until the time of assay of plasma posaconazole concentrations. […] Plasma samples were extracted by methyl tertiary butyl ether, centrifuged, and the upper layer was transferred to plastic injection vials with MeOH/water (50:50). An aliquot of the sample was then injected onto a high-pressure liquid chromatography with tandem mass spectrometry triple quadrupole mass spectrometer (Sciex API-5500). The analytical column was a Unison CK-218, 3 μm particle size HPLC column (50×2 mm) from Imtakt USA (Portland, OR). […] Pharmacokinetic and Statistical Methods. […] This was used to calculate the half-life (t1/2). The area under the plasma concentration curve from time 0 until the last nonzero point was determined by the linear trapezoidal method. To this was added the residual area, calculated as the final nonzero concentration divided by β, yielding the total area under the plasma concentration curve extrapolated to infinity (AUC). Also tabulated was the observed maximum plasma concentration (Cmax). Variables were aggregated as arithmetic mean and SD.

[2] = as above; format: in vivo; details: human, oral, 500 mg, Day 1, obese subjects, ranolazine 500 mg ER
[3] = human, plasma, oral, 500 mg, Day 1 (before posaconazole), normal-weight subjects, ranolazine 500 mg ER, mean ± SD
[4] = human, plasma, oral, 500 mg, Day 1 (before posaconazole), obese subjects, ranolazine 500 mg ER, mean ± SD
[5] = human, plasma, oral, 500 mg, Day 18 (3 days after last posaconazole dose), normal-weight subjects, ranolazine 500 mg ER, mean ± SD
[6] = human, plasma, oral, 500 mg, Day 18 (3 days after last posaconazole dose), obese subjects, ranolazine 500 mg ER, mean ± SD
[7] = human, plasma, oral, 500 mg, Day 22 (7 days after last posaconazole dose), normal-weight subjects, ranolazine 500 mg ER, mean ± SD
[8] = human, plasma, oral, 500 mg, Day 22 (7 days after last posaconazole dose), obese subjects, ranolazine 500 mg ER, mean ± SD
[9] = human, plasma, oral, 500 mg, Day 25 (10 days after last posaconazole dose), normal-weight subjects, ranolazine 500 mg ER, mean ± SD
[10] = human, plasma, oral, 500 mg, Day 25 (10 days after last posaconazole dose), obese subjects, ranolazine 500 mg ER, mean ± SD
[11] = human, plasma, oral, 500 mg, Day 29 (14 days after last posaconazole dose), normal-weight subjects, ranolazine 500 mg ER, mean ± SD
[12] = human, plasma, oral, 500 mg, Day 29 (14 days after last posaconazole dose), obese subjects, ranolazine 500 mg ER, mean ± SD
[13] = human, plasma, oral, Day 15 (last day of posaconazole 300 mg daily), normal-weight subjects, ranolazine 500 mg ER, mean ± SD
[14] = human, plasma, oral, Day 15 (last day of posaconazole 300 mg daily), obese subjects, ranolazine 500 mg ER, mean ± SD

With `COc1ccccc1OCC(O)CN1CCN(CC(=O)Nc2c(C)cccc2C)CC1` (stereo not shown) [ranolazine] the T1/2 ([1]; Day 1 (before posaconazole), normal-weight subjects, ranolazine 500 mg ER, mean ± SD) was 4.98 ± 1.50^a h, the “Time the interaction persisted above an AUC GMR of 1.5” value ([1]; normal-weight subjects) was “at least 7 days” and the “Time the interaction persisted above an AUC GMR of 1.5” value ([1]; obese subjects) was ≥ 10 days. For the same compound, the “Time the interaction persisted above a Cmax GMR of 1.5” value ([1]; normal-weight subjects) was 7 days, the “Time the interaction persisted above a Cmax GMR of 1.5” value ([1]; obese subjects) was 10 days and the “Time the lower bound of the AUC GMR 90% CI remained above 1.0” value ([1]; both normal-weight and obese subjects) was 7 days. The AUC(0-inf) [1, 3] was 7080 ± 3600 ng·h/mL, the half-life [1, 3] was 299 ± 90 min and the Cmax ([1]; human, plasma, oral, 500 mg, Day 1 (before posaconazole), normal-weight subjects, ranolazine 500 mg extended-release tablet, mean ± SD, read-out: Cmax) was 665 ± 318 ng/mL. For the same compound, the AUC(0-inf) [1, 4] was 8130 ± 4840 ng·h/mL, the half-life [1, 4] was 361 ± 105 min and the Cmax ([1]; human, plasma, oral, 500 mg, Day 1 (before posaconazole), obese subjects, ranolazine 500 mg extended-release tablet, mean ± SD, read-out: Cmax) was 559 ± 271 ng/mL. For the same compound, the Cmax ([1]; human, plasma, oral, 500 mg, Day 1, normal-weight subjects, ranolazine 500 mg ER, read-out: Geometric mean Cmax) was 665 ± 318 ng/mL, the AUC(0-inf) [1, 5] was 17300 ± 10300 ng·h/mL and the half-life [1, 5] was 344 ± 91.8 min. It also gave a Cmax ([1]; human, plasma, oral, 500 mg, Day 18 (3 days after last posaconazole dose), normal-weight subjects, ranolazine 500 mg ER, mean ± SD, read-out: Cmax) of 1190 ± 469 ng/mL, an AUC(0-inf) [1, 6] of 19300 ± 14200 ng·h/mL and a half-life [1, 6] of 476 ± 179 min. For the same compound, the Cmax ([1]; human, plasma, oral, 500 mg, Day 18 (3 days after last posaconazole dose), obese subjects, ranolazine 500 mg ER, mean ± SD, read-out: Cmax) was 1100 ± 502 ng/mL, the AUC(0-inf) [1, 7] was 13400 ± 6250 ng·h/mL and the half-life [1, 7] was 388 ± 188 min. The Cmax ([1]; human, plasma, oral, 500 mg, Day 22 (7 days after last posaconazole dose), normal-weight subjects, ranolazine 500 mg ER, mean ± SD, read-out: Cmax) was 974 ± 400 ng/mL, the AUC(0-inf) [1, 8] was 15900 ± 11800 ng·h/mL and the half-life [1, 8] was 365 ± 126 min. The Cmax ([1]; human, plasma, oral, 500 mg, Day 22 (7 days after last posaconazole dose), obese subjects, ranolazine 500 mg ER, mean ± SD, read-out: Cmax) was 1060 ± 508 ng/mL, the AUC(0-inf) [1, 9] was 9380 ± 4590 ng·h/mL and the half-life [1, 9] was 303 ± 109 min. It also gave a Cmax ([1]; human, plasma, oral, 500 mg, Day 25 (10 days after last posaconazole dose), normal-weight subjects, ranolazine 500 mg ER, mean ± SD, read-out: Cmax) of 928 ± 482 ng/mL, an AUC(0-inf) [1, 10] of 13800 ± 10600 ng·h/mL and a half-life [1, 10] of 364 ± 126 min. For the same compound, the Cmax ([1]; human, plasma, oral, 500 mg, Day 25 (10 days after last posaconazole dose), obese subjects, ranolazine 500 mg ER, mean ± SD, read-out: Cmax) was 976 ± 487 ng/mL, the AUC(0-inf) [1, 11] was 8570 ± 3800 ng·h/mL and the half-life [1, 11] was 267 ± 82.8 min. It also gave a Cmax ([1]; human, plasma, oral, 500 mg, Day 29 (14 days after last posaconazole dose), normal-weight subjects, ranolazine 500 mg ER, mean ± SD, read-out: Cmax) of 751 ± 276 ng/mL, an AUC(0-inf) [1, 12] of 10200 ± 7940 ng·h/mL and a half-life [1, 12] of 383 ± 183 min. The Cmax ([1]; human, plasma, oral, 500 mg, Day 29 (14 days after last posaconazole dose), obese subjects, ranolazine 500 mg ER, mean ± SD, read-out: Cmax) was 719 ± 333 ng/mL, the AUC ([1]; human, plasma, oral, 500 mg, Geometric mean AUC for ranolazine, Day 1, normal-weight subjects, ranolazine 500 mg ER) was 6450 ng·h/mL and the AUC(0-inf) [1, 13] was 27500 ± 14900 ng·h/mL. For the same compound, the half-life [1, 13] was 572 ± 258 min, the Cmax ([1]; human, plasma, oral, Day 15 (last day of posaconazole 300 mg daily), normal-weight subjects, ranolazine 500 mg ER, mean ± SD, read-out: Cmax) was 1430 ± 666 ng/mL and the AUC(0-inf) [1, 14] was 25800 ± 21600 ng·h/mL. For the same compound, the half-life [1, 14] was 527 ± 335 min, the Cmax ([1]; human, plasma, oral, Day 15 (last day of posaconazole 300 mg daily), obese subjects, ranolazine 500 mg ER, mean ± SD, read-out: Cmax) was 1180 ± 512 ng/mL and the Cmax ([2]; read-out: Geometric mean Cmax) was 559 ± 271 ng/mL. For the same compound, the AUC ([2]; Geometric mean AUC for ranolazine) was 6960 ng·h/mL.
